Assay results as given in US20200017496A1 (priority 2017, published 2020).
Like-named read-outs stand apart in the source and are kept apart here.

Experiments:
Experiment in all cases: MIC of compounds alone and combined with antibacterials, broth microdilution (CLSI)
Format in all cases: cell-based
[1] = tested on: Enterobacter aerogenes (EAE) isolates; settings: for MIC: Klebsiella aerogenes
In short: (§1)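 Log-phase isolates at final 5·10^5 CFU/mL in cation-adjusted Mueller-Hinton broth, incubated 16-20 h at 35° C in ambient air. MIC read visually as lowest concentration preventing growth, for compound alone and for antibacterial at each compound concentration.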

[2] = tested on: Serratia marcescens (SMA) isolates; settings: for MIC: Serratia marcescens
In short: as §1

[3] = tested on: Morganella morganii (MMO) isolates; settings: for MIC: Morganella morganii, ATB alone, read-out: MIC
In short: as §1

[4] = tested on: Klebsiella oxytoca (KOX) isolates
In short: as §1

[5] = tested on: Providencia stuartii (PST) isolates
In short: as §1

[6] = tested on: Citrobacter koseri (CKR) isolates; settings: for MIC: Citrobacter koseri, ATB alone, read-out: MIC
In short: as §1

[7] = tested on: Providencia rettgeri (PRE) isolates; settings: for MIC: Providencia rettgeri, ATB alone; for MIC ATB in combination: strain PRE UFR236
In short: as §1

In the case of `CC(C)(O/N=C(\C(=O)N[C@@H]1C(=O)N2C(C(=O)[O-])=C(C[n+]3ccccc3)CS[C@H]12)c1csc(N)n1)C(=O)O` [CAZ, Ceftazidime], the “MIC ATB in combination” value ([1]; EAE 49469, AF1 @ 4 μg/mL) is reported as 8 mg/L, the “MIC ATB in combination” value ([1]; EAE 49469, AF1 @ 8 μg/mL) is reported as 2 mg/L and the “MIC ATB in combination” value ([1]; EAE 200261, AF1 @ 4 μg/mL) is reported as 2 mg/L. For the same compound, the “MIC ATB in combination” value ([1]; EAE 200261, AF1 @ 8 μg/mL) was 0.5 mg/L, the “MIC ATB in combination” value ([1]; EAE UFR199, AF1 @ 4 μg/mL) was 1 mg/L and the “MIC ATB in combination” value ([1]; EAE UFR199, AF1 @ 8 μg/mL) was 0.5 mg/L. The “MIC ATB in combination” value ([1]; EAE UFR201, AF1 @ 4 μg/mL) was 0.5 mg/L, the “MIC ATB in combination” value ([1]; EAE UFR201, AF1 @ 8 μg/mL) was “<=0.25 μg/mL” and the “MIC ATB in combination” value ([1]; EAE UFR202, AF1 @ 4 μg/mL) was 2 mg/L. For the same compound, the “MIC ATB in combination” value ([1]; EAE UFR202, AF1 @ 8 μg/mL) was 1 mg/L, the “MIC ATB in combination” value ([1]; EAE UFR213, AF1 @ 4 μg/mL) was 0.5 mg/L and the “MIC ATB in combination” value ([1]; EAE UFR213, AF1 @ 8 μg/mL) was 0.5 mg/L. For the same compound, the MIC [1] was > 256 mg/L, the MIC ([1]; strain EAE UFR202 (TEM-24), ATB alone, read-out: MIC) was > 256 mg/L and the MIC ([1]; strain EAE UFR213 (TEM-24), ATB alone, read-out: MIC) was > 256 mg/L. For the same compound, the “MIC ATB in combination” value ([2]; SMA UFR30, AF1 @ 4 μg/mL) was “<=0.25 μg/mL”, the “MIC ATB in combination” value ([2]; SMA UFR30, AF1 @ 8 μg/mL) was “<=0.25 μg/mL” and the “MIC ATB in combination” value ([2]; SMA UFR134, AF1 @ 8 μg/mL) was “<=0.25 μg/mL”. The “MIC ATB in combination” value ([2]; SMA UFR135, AF1 @ 4 μg/mL) was 2 mg/L, the “MIC ATB in combination” value ([2]; SMA UFR135, AF1 @ 8 μg/mL) was 1 mg/L and the “MIC ATB in combination” value ([2]; SMA UFR136, AF1 @ 4 μg/mL) was 2 mg/L. For the same compound, the “MIC ATB in combination” value ([2]; SMA UFR136, AF1 @ 8 μg/mL) was 1 mg/L, the “MIC ATB in combination” value ([2]; SMA UFR137, AF1 @ 4 μg/mL) was “<=0.25 μg/mL” and the “MIC ATB in combination” value ([2]; SMA UFR137, AF1 @ 8 μg/mL) was “<=0.25 μg/mL”. The “MIC ATB in combination” value ([2]; SMA UFR138, AF1 @ 4 μg/mL) was “<=0.25 μg/mL”, the “MIC ATB in combination” value ([2]; SMA UFR138, AF1 @ 8 μg/mL) was “<=0.25 μg/mL” and the “MIC ATB in combination” value ([2]; SMA UFR139, AF1 @ 4 μg/mL) was “<=0.25 μg/mL”. The “MIC ATB in combination” value ([2]; SMA UFR139, AF1 @ 8 μg/mL) was “<=0.25 μg/mL”, the “MIC ATB in combination” value ([2]; SMA UFR141, AF1 @ 8 μg/mL) was “<=0.25 μg/mL” and the “MIC ATB in combination” value ([2]; SMA UFR239, AF1 @ 4 μg/mL) was 8 mg/L. The “MIC ATB in combination” value ([2]; SMA UFR239, AF1 @ 8 μg/mL) was 4 mg/L, the MIC [2] was > 256 mg/L and the MIC ([2]; strain SMA UFR30 (OXA-405), ATB alone, read-out: MIC) was 8 mg/L. For the same compound, the MIC ([2]; strain SMA UFR134 (TEM-1, BES-1), ATB alone, read-out: MIC) was 8 mg/L, the MIC ([2]; strain SMA UFR135 (TEM-1, KPC-2), ATB alone, read-out: MIC) was 32 mg/L and the MIC ([2]; strain SMA UFR138 (SME-1), ATB alone, read-out: MIC) was ≤ 0.25 mg/L. For the same compound, the MIC ([2]; strain SMA UFR139 (SME-2), ATB alone, read-out: MIC) was ≤ 0.25 mg/L, the MIC ([2]; strain SMA UFR141 (OXA-48), ATB alone, read-out: MIC) was 1 mg/L and the MIC ([2]; strain SMA UFR239 (ESAC), ATB alone, read-out: MIC) was 32 mg/L. The “MIC ATB in combination” value ([2]; strain SMA UFR238, antibacterial combined with AF1 @ 8 μg/mL) was “<=0.25 μg/mL”, the “MIC ATB in combination” value ([3]; MMO 200321, AF1 @ 4 μg/mL) was “<=0.25 μg/mL” and the “MIC ATB in combination” value ([3]; MMO UFR144, AF1 @ 4 μg/mL) was “<=0.25 μg/mL”. For the same compound, the “MIC ATB in combination” value ([3]; MMO UFR144, AF1 @ 8 μg/mL) was “<=0.25 μg/mL”, the “MIC ATB in combination” value ([3]; MMO UFR240, AF1 @ 4 μg/mL) was “<=0.25 μg/mL” and the “MIC ATB in combination” value ([3]; MMO UFR240, AF1 @ 8 μg/mL) was “<=0.25 μg/mL”. For the same compound, the “MIC ATB in combination” value ([3]; MMO UFR241, AF1 @ 4 μg/mL) was “<=0.25 μg/mL”, the “MIC ATB in combination” value ([3]; MMO UFR241, AF1 @ 8 μg/mL) was “<=0.25 μg/mL” and the “MIC ATB in combination” value ([3]; MMO UFR242, AF1 @ 4 μg/mL) was 2 mg/L. The “MIC ATB in combination” value ([3]; MMO UFR242, AF1 @ 8 μg/mL) was 0.25 mg/L, the “MIC ATB in combination” value ([3]; MMO UFR243, AF1 @ 4 μg/mL) was “<=0.25 μg/mL” and the “MIC ATB in combination” value ([3]; MMO UFR243, AF1 @ 8 μg/mL) was “<=0.25 μg/mL”. The “MIC ATB in combination” value ([3]; MMO UFR244, AF1 @ 4 μg/mL) was “<=0.25 μg/mL”, the “MIC ATB in combination” value ([3]; MMO UFR244, AF1 @ 8 μg/mL) was “<=0.25 μg/mL” and the “MIC ATB in combination” value ([3]; MMO UFR245, AF1 @ 4 μg/mL) was “<=0.25 μg/mL”. The “MIC ATB in combination” value ([3]; MMO UFR245, AF1 @ 8 μg/mL) was “<=0.25 μg/mL”, the “MIC ATB in combination” value ([3]; MMO UFR246, AF1 @ 4 μg/mL) was “<=0.25 μg/mL” and the “MIC ATB in combination” value ([3]; MMO UFR246, AF1 @ 8 μg/mL) was “<=0.25 μg/mL”. It also gave an MIC ([3]; strain MMO 200321 (TEM-1, CTX-M-15, OXA-1)) of 16 mg/L, an MIC ([3]; strain MMO UFR144 (TEM-1, CTX-M-15)) of 8 mg/L and an MIC ([3]; strain MMO UFR241 (TEM-1, CTX-M-15)) of 8 mg/L. It also gave an MIC ([3]; strain MMO UFR242 (TEM-52)) of 32 mg/L, an MIC ([3]; strain MMO UFR243 (DHA-1)) of 1 mg/L and an MIC ([3]; strain MMO UFR245 (DHA-1)) of 8 mg/L. The MIC ([3]; strain MMO UFR246 (DHA-1)) was 4 mg/L, the “MIC ATB in combination” value ([4]; KOX UFR21, AF1 @ 4 μg/mL) was 2 mg/L and the “MIC ATB in combination” value ([4]; KOX UFR21, AF1 @ 8 μg/mL) was “<=0.25 μg/mL”. The “MIC ATB in combination” value ([4]; KOX UFR173, AF1 @ 8 μg/mL) was “<=0.25 μg/mL”, the “MIC ATB in combination” value ([4]; KOX UFR223, AF1 @ 4 μg/mL) was “<=0.25 μg/mL” and the “MIC ATB in combination” value ([4]; KOX UFR223, AF1 @ 8 μg/mL) was “<=0.25 μg/mL”. The “MIC ATB in combination” value ([4]; KOX UFR224, AF1 @ 4 μg/mL) was “<=0.25 μg/mL”, the “MIC ATB in combination” value ([4]; KOX UFR224, AF1 @ 8 μg/mL) was “<=0.25 μg/mL” and the MIC ([4]; Klebsiella oxytoca, strain KOX UFR173 (OXY2-2), ATB alone, read-out: MIC) was 8 mg/L. For the same compound, the “MIC ATB in combination” value ([5]; PST UFR94, AF1 @ 4 μg/mL) was 0.5 mg/L, the “MIC ATB in combination” value ([5]; PST UFR94, AF1 @ 8 μg/mL) was “<=0.25 μg/mL” and the “MIC ATB in combination” value ([5]; PST UFR95, AF1 @ 4 μg/mL) was 1 mg/L. For the same compound, the “MIC ATB in combination” value ([5]; PST UFR95, AF1 @ 8 μg/mL) was 0.5 mg/L, the “MIC ATB in combination” value ([5]; PST UFR235, AF1 @ 4 μg/mL) was 1 mg/L and the “MIC ATB in combination” value ([5]; PST UFR235, AF1 @ 8 μg/mL) was “<=0.25 μg/mL”. For the same compound, the MIC ([5]; Providencia stuartii, strain PST UFR94 (CTX-M-14), ATB alone, read-out: MIC) was 1 mg/L, the “MIC ATB in combination” value ([6]; CKO ROU, AF1 @ 4 μg/mL) was “<=0.25 μg/mL” and the “MIC ATB in combination” value ([6]; CKO ROU, AF1 @ 8 μg/mL) was “<=0.25 μg/mL”. For the same compound, the “MIC ATB in combination” value ([6]; CKO UFR149, AF1 @ 4 μg/mL) was 0.5 mg/L, the “MIC ATB in combination” value ([6]; CKO UFR149, AF1 @ 8 μg/mL) was “<=0.25 μg/mL” and the “MIC ATB in combination” value ([6]; CKO UFR150, AF1 @ 4 μg/mL) was 4 mg/L. The “MIC ATB in combination” value ([6]; CKO UFR150, AF1 @ 8 μg/mL) was 4 mg/L, the MIC ([6]; strain CKO ROU (TEM-1, SHV-12, CTX-M-15, OXA-1, OXA-48)) was 1 mg/L and the MIC ([6]; strain CKO UFR150 (TEM-1, OXA-48)) was 4 mg/L. For the same compound, the MIC ([7]; strain PRE UFR99 (OXA-1, OXA-181)) was > 256 mg/L, the MIC ([7]; strain PRE UFR236 (TEM-1, OXA-48), read-out: MIC) was 32 mg/L and the “MIC ATB in combination” value ([7]; antibacterial combined with AF1 @ 4 μg/mL) was 1 mg/L. For the same compound, the “MIC ATB in combination” value ([7]; antibacterial combined with AF1 @ 8 μg/mL) was 0.5 mg/L.
